# Laboratory results as given in publication PMC12040169 (PLOS Biology, 2025).
# Assay: in vitro
# Settings: human, hela cells, % viability
row,SMILES,"viability at 28.5 h, 10 µM [%]"
1,Cn1cccc1C1(O)CCCC2CN(C(=O)c3ccco3)CC21 (stereo not shown) [CBK284509],99.9
2,OC1(c2cccnc2)CCCC2CN(Cc3ccc(F)c(F)c3)CC21 (stereo not shown) [CBK284511],101
3,OC1(c2cccnc2)CCCC2CN(Cc3c(F)cccc3F)CC21 (stereo not shown) [CBK284512],114
4,OC1(c2cccnc2)CCCC2CN(Cc3cc(F)ccc3F)CC21 (stereo not shown) [CBK284513],103
5,N=C1OC2CSCC2N1C(=O)Cc1ccc(F)cc1 (stereo not shown) [CBK284515],103
6,Cc1cc(C(=O)N2C3CCC2CC(O)(c2ccnn2C)C3)sc1C (stereo not shown) [CBK284518],103
7,O=C(Cc1ccccc1F)NCCn1nc2c(cc1=O)CCCCC2 [CBK284519],94.7
8,Cc1cc(-c2ccc(=O)n(CCNC(=O)C3CCCCC3)n2)c(C)o1 [CBK284522],95.7
9,N=C1OC2CSCC2N1C(=O)C1(c2ccccc2)CC1 (stereo not shown) [CBK284524],106
10,O=C(c1cccs1)N1CCC[C@@H]1Cn1c(=O)oc2ccccc21 [CBK284528],102
11,CCCC(=O)N[C@@H](Cn1c(=O)oc2ccccc21)C(C)C [CBK284536],91.2
12,O=C(c1ccco1)N1CCC[C@@H]1Cn1c(=O)oc2ccccc21 [CBK284538],87.6
13,O=C(C1CCCC1)N1CCC[C@@H]1Cn1c(=O)oc2ccccc21 [CBK284539],87.3
14,CC[C@H](Cn1c(=O)oc2ccccc21)NC(=O)c1cccs1 [CBK284540],80.7
15,CC[C@H](Cn1c(=O)oc2ccccc21)NC(=O)c1ccco1 [CBK284541],86.7
16,C[C@H](Cn1nc2c(cc1=O)CCCCC2)NC(=O)Cc1cccs1 [CBK284548],100
17,COc1ccc(F)c(CN2CC3CCCN3C[C@@H]2C)c1 (stereo partly shown) [CBK284549],86.9
18,CC[C@@H](Cn1nc2c(cc1=O)CCCCC2)NC(=O)c1ccco1 [CBK284553],78.2
19,C[C@@H]1CN2CCCC2CN1Cc1ccc2ncccc2c1 (stereo partly shown) [CBK284555],99.3
20,Cc1nc2nc(-c3ccc(Cl)s3)cn2nc1C [CBK284565],103
21,CC(C)C(=O)N1C[C@H]2N(C)C(=O)c3ccccc3C(=O)[C@@]2(C)C1 [CBK284568],97.8
22,CN1C(=O)c2ccccc2C(=O)[C@@]2(C)CN(C(=O)C3CC3)C[C@@H]12 [CBK284569],87.3
23,CN1C(=O)c2ccccc2C(=O)[C@@]2(C)CN(C(=O)C3CCCC3)C[C@@H]12 [CBK284570],91.5

row,SMILES,"viability at 28.5 h, 10 µM [%]"
1,CC(=O)NCCn1cc2c(n1)[C@H]1CN(C(=O)C(C)C)C[C@H]1CC2 [CBK284571],93.3
2,CC(=O)NCCn1cc2c(n1)[C@H]1CN(C(=O)CC(C)C)C[C@H]1CC2 [CBK284572],99.1
3,CCOC(=O)[C@@]12CC=CCN(C(=O)c3ccco3)[C@@H]1CCC2 [CBK284574],104
4,CCOC(=O)[C@@]12CC=CCN(C(=O)c3cccnc3)[C@@H]1CCC2 [CBK284575],90.8
5,CCn1ncc(CN2CCC(c3onc4c3CCCC4)CC2)c1C [CBK284576],90.2
6,CCOC(=O)C1(Cc2cc(-c3ccccc3F)no2)CCCNC1 (stereo not shown) [CBK284577],85.2
7,CCOC(=O)C1(Cc2cc(-c3ccc(F)cc3)no2)CCCNC1 (stereo not shown) [CBK284579],84
8,CCOC(=O)C1(Cc2cc(-c3ccccc3F)no2)CCNCC1 [CBK284580],101
9,CCOC(=O)C1(Cc2cc(-c3ccc(F)cc3)no2)CCNCC1 [CBK284581],109
10,CN(C)[C@@H]1CN(Cc2ccccn2)C[C@H]1c1cn(C)c2ccccc12 [CBK284582],97.9
11,CC(=O)NCCn1cc2c(n1)[C@H]1CN(C(=O)C3CCC3)C[C@H]1CC2 [CBK284584],107
12,CC(=O)N1C[C@@H](c2ccsc2)[C@@H]2CN(CC3CCCCC3)CC[C@@H]21 [CBK284587],93
13,O=C(NC1CC1)c1cc(C2CCCN(Cc3cccc(F)c3)C2)no1 (stereo not shown) [CBK284588],99
14,CC1CCN(C(=O)[C@@H]2CN(C)C[C@]23CCc2ccccc2C3=O)CC1 [CBK284589],100
15,CC(=O)N1CCCC(c2cc3cccnc3n2CCN2CCCC2)C1 (stereo not shown) [CBK284591],96.8
16,Cc1c(C(=O)N2CCCC(c3nc(C)n4ccsc34)C2)cnn1C (stereo not shown) [CBK284593],102
17,Cc1csc2c(C3CCCN(C(=O)c4ccccn4)C3)nc(C)n12 (stereo not shown) [CBK284594],98.6
18,COCC(=O)N1CCC(c2onc3c2CC(C)CC3)CC1 (stereo not shown) [CBK284599],89.9
19,COCC(=O)N1CCC(c2cc(-c3ccc(F)cc3)n[nH]2)C1 (stereo not shown) [CBK284600],101
20,COc1ccc(OC[C@@H]2C3CCC(C3)N2C(=O)C2CC2)cc1 (stereo partly shown) [CBK284602],94.7
21,Cc1noc2nc(C3CCCN(C(=O)C4CC4)C3)cc(C(F)F)c12 (stereo not shown) [CBK284608],85.8
22,O=C1NC2(CCc3ccccc31)CCN(Cc1ccncc1)C2 (stereo not shown) [CBK284610],99
23,Cc1cccnc1CN1CCC2(CCc3ccccc3C(=O)N2)C1 (stereo not shown) [CBK284611],96.4

row,SMILES,"viability at 28.5 h, 10 µM [%]"
1,O=C(C1CCCC1)N1CCC(c2nnc3n2CCCCC3)CC1 [CBK284612],103
2,CCCCC(=O)N1CC(n2nc(-c3ccccc3)ccc2=O)C1 [CBK284615],95.6
3,O=C1NC2(CCc3ccccc31)CCN(C/C=C/c1cccnc1)C2 (stereo not shown) [CBK284622],86.2
4,O=C(C1CCC1)N1CCC(c2nnc3n2CCCCC3)CC1 [CBK284625],103
5,O=C(c1ccccc1F)N1CCC(c2nnc3n2CCCCC3)CC1 [CBK284628],82.2
6,CC(C)CC(=O)N1CCC(c2nnc3n2CCCCC3)CC1 [CBK284629],83.2
7,O=C(NCc1nnc(-c2cccs2)o1)c1cccc(Cl)c1 [CBK284633],95.6
8,O=C(NCc1nnc(-c2cccs2)o1)c1cccc(F)c1F [CBK284634],91.1
9,O=C(NCc1nnc(-c2cccs2)o1)c1cccc2ccccc12 [CBK284636],82.1
10,O=C(NCc1nnc(-c2cccs2)o1)C1(c2ccccc2F)CC1 [CBK284637],83.2
11,O=C(NCc1nnc(-c2cccs2)o1)C1(c2ccc(F)cc2)CC1 [CBK284638],74.4
12,O=C(NCc1nnc(-c2cccs2)o1)C1(c2cccc(F)c2)CC1 [CBK284639],90.2
13,Cc1ccc(-c2nnc(CNC(=O)C3(c4ccccc4)CC3)o2)s1 [CBK284642],95.9
14,O=C(Cc1ccccc1Cl)NCc1nnc(-c2cccs2)o1 [CBK284643],96.4
15,Cc1ccc(-c2nnc(CNC(=O)Cc3ccccc3F)o2)s1 [CBK284644],78.4
16,Cc1ccc(-c2nnc(CNC(=O)Cc3ccc(F)cc3)o2)s1 [CBK284645],91.3
17,Cc1ccc(-c2nnc(CNC(=O)Cc3ccccc3Cl)o2)s1 [CBK284648],85.2
18,Nc1ccc([C@@H]2CN(Cc3ccccc3)C[C@]23CCCC(=O)N3)cc1 [CBK284649],97.5
19,O=C(C1CC1)N1CC(n2nc(-c3cccs3)ccc2=O)C1 [CBK284650],85.1
20,O=C(C1CC1)N1C2CCC1CC(O)(Cn1ccc3ccncc31)C2 (stereo not shown) [CBK284652],90.4
21,CC1CC1C(=O)N1C2CCC1CC(O)(Cn1ccc3ccncc31)C2 (stereo not shown) [CBK284653],85.6
22,COC1CCCC(C(=O)NC(Cc2ccsc2)c2cccnc2)C1 (stereo not shown) [CBK284654],84.4
23,CCCC(=O)N1CCC(c2nc3ccc(F)cc3cc2N)CC1 [CBK284655],92.1

row,SMILES,"viability at 28.5 h, 10 µM [%]"
1,Nc1cc2cc(F)ccc2nc1C1CCN(C(=O)C2CC2)CC1 [CBK284657],93.4
2,CC(C)(C)OC(=O)N1CCC(c2nc3ccc(F)cc3cc2N)CC1 [CBK284658],88.9
3,Cc1nccn1CC1(O)CCN(C(=O)C2(c3ccccc3)CC2)CC1 [CBK284659],94.6
4,Cc1ccc(C(C)C(=O)N2CCC(O)(Cn3ccnc3C)CC2)cc1 (stereo not shown) [CBK284660],83.8
5,OC1(Cn2cnc3ccccc32)CCN(Cc2ccccc2F)CC1 [CBK284662],85.3
6,OC1(Cn2cnc3ccccc32)CCN(Cc2cccc(F)c2)CC1 [CBK284663],94.9
7,O=C(Cn1cccn1)NC(Cc1ccsc1)c1nccs1 (stereo not shown) [CBK284666],94
8,CC(C)n1cc(C(=O)N2CCCC2c2nc3ccccc3[nH]2)cn1 (stereo not shown) [CBK284667],108
9,Cc1cc(C2CCCCCN2S(=O)(=O)c2ccc(F)cc2)on1 (stereo not shown) [CBK284668],82.2
10,CS(=O)(=O)N1CCCCCC1c1cc(-c2ccc(F)cc2)no1 (stereo not shown) [CBK284669],91.8
11,CS(=O)(=O)N1CCCCCC1c1cc(-c2cccs2)on1 (stereo not shown) [CBK284670],85.5
12,CC(=O)Nc1ccc(C#CC2(NC(=O)C3CC3)CCCCC2)cn1 [CBK284676],87.4
13,O=C(Cn1cccc2cc(C3CCNCC3)nc1-2)N1CCCCCC1 [CBK284679],95.6
14,O=C(Cn1cccc2cc(C3CCNCC3)nc1-2)N1CCCC1 [CBK284680],98
15,CCC(C)NC(=O)Cn1cccc2cc(C3CCNCC3)nc1-2 (stereo not shown) [CBK284681],110
16,Cc1cnc2[nH]c(C3CCN(C(=O)c4cnn(C)c4C)CC3)cc2c1 [CBK284684],88.8
17,Cc1cc(C(F)(F)F)n2nc(C3CCCN3C(=O)C(C)C)cc2n1 (stereo not shown) [CBK284685],93
18,CC1CCCN(Cc2c(C3CCOCC3)[nH]c3ncccc23)C1 (stereo not shown) [CBK284687],97
19,Cc1nccn1CC1(O)CCN(C(=O)CCc2ccccc2F)CC1 [CBK284689],96.6
20,CN1C(=O)c2ccccc2C(=O)[C@@]2(C)CN(Cc3ccccc3)C[C@@H]12 [CBK284692],95.1
21,Cn1cnc2cc(NCc3cc(-c4ccc(F)cc4)c[nH]c3=O)ccc21 [CBK284693],50.7
22,O=c1[nH]cc(-c2ccc(F)cc2)cc1CNCc1ccc(F)cc1 [CBK284695],96.1
